Data: the METLIN SMRT retention time set (Domingo-Almenara et al. 2019)

Assay: gradient 5% acetonitrile 3 min, to 50% in 2 min, to 85% in 15 min, held 3 min, 100 µL/min
Conditions: column: Zorbax Extend-C18 2.1 x 50 mm; eluents: water / acetonitrile, 0.1% formic acid
How it was run: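 Retention time was recorded from adduct peaks, which were picked computationally and each inspected manually. Pure standards ran in mixtures of ~100 molecules on HPLC coupled to a quadrupole time-of-flight mass spectrometer, in positive and negative ionization mode, through a Zorbax Extend-C18 column (2.1 × 50 mm, 1.8 μm) at 100 μL/min. Eluents were water and acetonitrile, each with 0.1% formic acid.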

Row | RP-LC retention time [s] | SMILES
1 | 708 | CC(=O)Nc1ccc2nc(NC(=O)CCOc3ccccc3)sc2c1
2 | 995 | O=C(NCc1ccc(Br)cc1)C(=O)c1c[nH]c2ccccc12
3 | 774 | Cc1nn(CC(=O)NCCc2ccco2)c(=O)c2c(C)n(-c3ccccc3)nc12
4 | 1020 | CCCCn1cc(S(=O)(=O)Nc2ccc(Cl)cc2)c2cccnc21
5 | 680 | CCN(CC)C(=O)c1cc(NS(=O)(=O)c2ccc(C(C)(C)C)cc2)cnc1N1CCNCC1
6 | 821 | Cc1ccc(C(=O)N2CCc3cc(CNC(=O)c4ccnn4C)ccc32)cc1
7 | 1010 | CC(C)c1noc(C2(NC(=O)c3ccc(F)cc3)CCCCC2)n1
8 | 692 | O=C(NCCn1nc(-c2ccc(F)cc2)ccc1=O)Nc1cccs1
9 | 826 | O=C1CN(C(=O)COc2ccccc2)C(c2ccccc2)c2cc(F)ccc2N1 (configuration not stated)
10 | 616 | CCc1cc(C(=O)N2CCN(CC)CC2)nc2cc(-c3ccco3)nn12
11 | 590 | CCCNc1cc(N2CCC(CCC(=O)NCCOC)CC2)ncn1
12 | 735 | COc1ccc(N2C(=O)N[C@@H]3C[C@]2(C)Oc2ccc(C)cc23)cc1OC
13 | 588 | Cc1ccc(CS(=O)(=O)N2CCC(C3CCNC3)CC2)cc1 (configuration not stated)
14 | 980 | O=C(Cn1cccc(-c2nc(-c3ccc(Br)cc3)no2)c1=O)Nc1ccc(F)cc1
15 | 736 | CCn1nc(N2CCCC(NS(=O)(=O)c3cccc4cccnc34)C2)ccc1=O (configuration not stated)
16 | 1070 | Cc1ccc(-c2ccc3nn(Cc4nc(-c5cccc(Br)c5)no4)c(=O)n3n2)cc1
17 | 1070 | COc1ccc(-c2noc(Cc3nnc(-c4cccc(Cl)c4)o3)n2)cc1
18 | 741 | COc1ccc(-c2cc(C(=O)Nc3cc(C)cc(C)c3)nn2C2CCS(=O)(=O)C2)cc1 (configuration not stated)
19 | 603 | Cc1noc([C@@H]2CN(Cc3cccc(Cl)c3)C[C@H]2CO)n1
20 | 637 | COc1ccc(Nc2nc(N3CCN(CCO)CC3)nc3c2C(=O)CCC3)cc1
21 | 1080 | CCSc1nc2ccc(NS(=O)(=O)Cc3ccc(Cl)cc3)cc2s1
22 | 582 | CCOC(=O)c1cn[nH]c1S(=O)(=O)N1CCN(c2ccccn2)CC1

Row | RP-LC retention time [s] | SMILES
23 | 871 | COCC(=O)N(CC(=O)N1CCc2sccc2C1COc1ccc(Cl)cc1)CC1CCCO1 (configuration not stated)
24 | 1240 | Cc1ccc(NC(=O)Cn2nc(N3CCCC(C)C3)c3ccccc3c2=O)cc1C (configuration not stated)
25 | 659 | Cc1ccc(Sc2ccc(N3CCCC(C(=O)N4CCN(c5ccccn5)CC4)C3)nn2)cc1 (configuration not stated)
26 | 590 | COCCc1nc(C2CCCN(C(=O)c3sccc3C)C2)n[nH]1 (configuration not stated)
27 | 657 | CCOC(=O)c1ccc(NC(=O)C2=C(C)C(=O)OC23CCN(C(C)C)CC3)cc1
28 | 1030 | CCn1cc(-c2nc(C)c(C(=O)N3CCc4ccccc43)s2)c2cccnc21
29 | 682 | O=C(c1cc(-c2ccccc2)n(C2CCS(=O)(=O)C2)n1)N1CCCC1 (configuration not stated)
30 | 721 | Cc1nn(-c2ccc(C(=O)N3CCCCC3)cc2)c2c1C(=O)CCC2
31 | 891 | CCc1nn(CCO)c(CC)c1Oc1cc(C#N)cc(C#N)c1
32 | 699 | Cc1cn(C)nc1C(=O)Nc1nc2ccc(S(C)(=O)=O)cc2s1
33 | 991 | Cc1nc2cc(-c3noc(-c4ccccn4)n3)ccc2n(C2CCCC2)c1=O
34 | 768 | CNC(=O)[C@H]1O[C@@H](n2cnc3c(NCc4cccc(I)c4)nc(Cl)nc32)C(O)[C@H]1O (some centres not stated)
35 | 857 | O=C(CSCc1ccccc1)N1CCC(c2nnc(C(F)(F)F)o2)CC1
36 | 780 | O=C(NCCn1ncc2c(=O)n(Cc3cccc(Cl)c3)cnc21)c1cc2ccccc2o1
37 | 1330 | Cc1ccc(C)c(-c2coc(-c3ccc(NC(=O)c4sccc4C)cc3)n2)c1
38 | 637 | CCn1cc(CN2CCCC(Cn3cc(COC)nn3)C2)c2cc(OC)ccc21 (configuration not stated)
39 | 881 | Cc1nn(-c2ccccc2)c(C)c1S(=O)(=O)N1CCC(C(=O)NCCc2cccs2)CC1
40 | 986 | CCOc1ccccc1-c1noc(-c2nc(C)no2)n1
41 | 683 | CCCNC(=O)c1c(OCC2CC2)cc(=O)n2c1CCCCC2
42 | 683 | CCOC(=O)c1cccc(NC(=O)NC2CCN(c3ccccc3)C2=O)c1 (configuration not stated)
43 | 890 | CC1=C(c2ccc(C)cc2)S(=O)(=O)N=C1N1CCCN(C(=O)NC2CCCCC2)CC1
44 | 1000 | CCCCn1cc(S(=O)(=O)NCc2cccc(C)c2)c2cccnc21

Row | RP-LC retention time [s] | SMILES
45 | 607 | CNC(=O)c1noc([C@@H]2CC(F)(F)CN2C(=O)CCOC)n1
46 | 838 | Cc1ccc2nc(NC(=O)C3CCN(C(=O)C4Sc5ccccc5NC4=O)CC3)sc2c1 (configuration not stated)
47 | 716 | O=C(Nc1cnc(N2CCCC2)nc1)c1cccc(F)c1
48 | 766 | Cc1ccc(C)c(NC(=O)N2CCC3(CC2)NC(=O)c2ccccc2O3)c1
49 | 730 | CCOC(=O)c1c(CN2CCCC2)n(C)c2cc(-c3ccncc3)c3c(c12)CN(C)CO3
50 | 778 | Cn1nc(C(=O)N2C[C@@H]3C[C@H](NC(=O)c4cccs4)[C@H]2C3)c2ccccc21
51 | 855 | O=C(CN1CCN(c2ccccc2F)C1=O)Nc1ccc(OC(F)(F)F)cc1
52 | 874 | O=C(Cc1csc(NC(=O)c2ccsc2)n1)Nc1nc2c(s1)CCCC2
53 | 602 | Cc1nc2cccnc2n1C1CCN(C(=O)c2cccc(Cl)c2)C1 (configuration not stated)
54 | 680 | Cc1oc(CNC(=O)Nc2ccccc2Cl)nc1C(=O)N1CCCC1
55 | 554 | O=c1c(=O)n(-c2ccc(Br)cc2)ccn1Cc1ccncc1
56 | 779 | CNS(=O)(=O)c1cc(-c2nnc(-c3ccc(OC)c(OC)c3)o2)ccc1C
57 | 712 | O=C(COc1ccccc1F)NCC1CCN(S(=O)(=O)C2CC2)CC1
58 | 754 | Cc1cc(=O)n(CC(=O)Nc2cccc(C(F)(F)F)c2)c(N2CCOCC2)n1
59 | 617 | CCc1cccc(Nc2c(C(=O)N3CCOCC3)cnc3nc(C)ccc23)c1
60 | 810 | CCN1c2ccc(C)cc2C(=O)NC12CCN(C(=O)c1ccc(OC)cc1)CC2
61 | 899 | CN1C(=O)C2(CCN(C(=O)C3CCCCC3)CC2)c2ccccc21
62 | 736 | CCOc1ccc(-c2noc(N3CCC(C(=O)N4CCOCC4)CC3)n2)cc1OC
63 | 618 | O=C1OC2CC1N(C(=O)Cn1c(=O)oc3ccccc31)C2 (configuration not stated)
64 | 813 | CN(CC1(C)CCOCC1)C(=O)c1c(F)cccc1Cl

Row | SMILES | RP-LC retention time [s]
65 | COc1ccc2c(c1)C1(CCN(S(=O)(=O)c3ccc4c(c3)oc(=O)n4C)C1)C(=O)N2C (configuration not stated) | 818
66 | Cc1cc(Cl)ccc1NC(=O)c1cn(C)c2ncccc12 | 827
67 | COc1ccc2[nH]cc(CCNCc3ccc(Br)cc3)c2c1 | 764
